Calls of active or inactive are those of the source.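 Rule for the calls: active = in confirmatory dose-response testing, peak deubiquitinase inhibition of 30% or more; inactive = the rest.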
The compounds below were run against Ubiquitin carboxyl-terminal hydrolase 28 (Homo sapiens) (UniProt Q96RU2) (assay: Concentration-response biochemical assay confirming initial hits as inhibitors of ubiquitin-specific protease 28 (AID 1645866)). Conditions: purified USP28, ubiquitin-rhodamine fluorescence, 30 min.
Ubiquitin carboxyl-terminal hydrolase 28 (Homo sapiens), sequence (Q96RU2 whole entry, looked up): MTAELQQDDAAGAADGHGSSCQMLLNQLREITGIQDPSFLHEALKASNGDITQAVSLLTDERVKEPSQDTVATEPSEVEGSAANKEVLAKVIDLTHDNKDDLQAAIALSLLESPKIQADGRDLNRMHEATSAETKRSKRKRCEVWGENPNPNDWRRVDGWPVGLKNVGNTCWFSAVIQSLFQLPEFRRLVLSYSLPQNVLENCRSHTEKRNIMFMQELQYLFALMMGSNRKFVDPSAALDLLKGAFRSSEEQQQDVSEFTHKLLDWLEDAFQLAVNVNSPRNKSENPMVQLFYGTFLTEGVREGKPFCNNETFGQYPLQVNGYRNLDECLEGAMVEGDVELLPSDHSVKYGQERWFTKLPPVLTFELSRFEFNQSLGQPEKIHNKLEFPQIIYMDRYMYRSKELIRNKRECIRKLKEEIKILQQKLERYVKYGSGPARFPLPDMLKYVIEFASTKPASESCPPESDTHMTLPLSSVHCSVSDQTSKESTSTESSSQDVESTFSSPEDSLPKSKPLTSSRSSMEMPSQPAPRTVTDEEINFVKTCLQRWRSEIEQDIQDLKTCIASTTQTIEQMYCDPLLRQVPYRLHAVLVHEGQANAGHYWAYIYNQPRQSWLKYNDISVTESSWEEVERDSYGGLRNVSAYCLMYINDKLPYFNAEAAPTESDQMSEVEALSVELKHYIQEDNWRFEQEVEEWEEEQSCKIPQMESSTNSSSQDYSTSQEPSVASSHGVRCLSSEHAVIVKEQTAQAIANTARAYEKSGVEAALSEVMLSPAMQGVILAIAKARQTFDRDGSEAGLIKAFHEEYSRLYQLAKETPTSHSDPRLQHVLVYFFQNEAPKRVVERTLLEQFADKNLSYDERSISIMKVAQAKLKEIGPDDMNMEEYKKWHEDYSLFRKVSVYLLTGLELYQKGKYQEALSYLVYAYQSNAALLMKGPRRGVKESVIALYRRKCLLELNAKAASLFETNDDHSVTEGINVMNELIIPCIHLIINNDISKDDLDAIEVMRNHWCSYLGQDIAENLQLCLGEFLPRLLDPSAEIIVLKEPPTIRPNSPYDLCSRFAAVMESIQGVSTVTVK

SMILES | IC50
CCOc1ccc(N2C(=O)c3ccccc3C2C(=O)NCc2ccccc2OC)cc1 (configuration not stated) | 29.8 µM
CCNc1oc(-c2ccc(S(=O)(=O)N3CCCCC3)cc2)nc1C#N | 26.6 µM
CCOC(=O)C1CCN(C(=O)c2ccc3c(c2)NC(=O)C2CCCN32)CC1 (configuration not stated) | > 50 µM (inactive)
Cc1ccc2[nH]c(=O)c(CN(CC3COCCO3)S(=O)(=O)c3ccc(F)cc3)cc2c1 (configuration not stated) | 13.5 µM
Cc1cc(O)c2c3c(c(O)c4c(c13)O[C@@H](C)C4(C)C)C(=O)C2=O | 23.5 µM
N#Cc1cccc(S(=O)(=O)N2CCc3nc4ccccc4n3CC2)c1 | 21.7 µM
O=C1Cc2ccccc2C(=O)N1c1ccc2c(c1)OCO2 | 24.3 µM
Cc1ccc(C(=O)c2cn(CC(=O)Nc3ccccc3)c3ccc(C)cc3c2=O)cc1 | 6 µM
Cc1nc(N2CCCC2)ncc1-c1cc(=O)[nH]c(N2CCc3ccccc3C2)n1 | 21.9 µM
Cc1ccccc1-c1noc(-c2ccccc2OCC(=O)NC(C)C)n1 | > 50 µM (inactive)
CSc1ccccc1C(=O)Nc1nc(-c2ccncc2)cs1 | 31 µM
COc1ccc(C)cc1NC(=O)C(NS(=O)(=O)c1ccc2c(c1)CCN2C(C)=O)C(C)C (configuration not stated) | > 50 µM (inactive)
O=C(Cn1c(=O)n(Cc2ccco2)c(=O)c2ccc(C(=O)NC3CCCC3)cc21)NCc1ccco1 | 27.5 µM
O=C(NCCc1ccccn1)c1cn2ccnc(-c3ccc(F)cc3)c2n1 | > 50 µM (inactive)
Cc1cccc(NC(=O)Cn2c(N3CCOCC3)nc3cc(C)n(C)c3c2=O)c1 | 16.3 µM
CCn1c(SCC(=O)N2c3ccccc3CC2C)nnc1-c1ccc2c(c1)OCCO2 (configuration not stated) | 33.8 µM
O=C(COc1ccc(Cl)cc1Cl)Nc1ccccc1-c1nc2ccccc2[nH]1 | 2.38 µM
CCOc1ccc2cc3c(nc2c1)OC(=O)N(Cc1ccc(C)o1)C3 | 2.93 µM
O=C(Nc1cccc(-c2noc(C3CCC3)n2)c1)C1CC(=O)N(c2ccccc2)C1 (configuration not stated) | 18.8 µM
Cc1cc(C)n2nc(CNc3cccc(Cl)c3)nc2n1 | 16.4 µM
Cc1cnnn1-c1ccc(C(=O)Nc2ccc(Cl)cc2)cc1 | 20.3 µM
COC(=O)c1ccc2c(=O)n(CCCCCC(=O)NCc3cccc(Cl)c3)c(=O)[nH]c2c1 | 2.05 µM
CN(C)S(=O)(=O)N1CCCC2(C1)Nc1cccnc1NC2=NC1CCCC1 (configuration not stated) | > 50 µM (inactive)
O=C(Nc1ccc(SCc2nnc(-c3ccccc3)o2)cc1)C1CC1 | 8.42 µM
Cc1ccccc1NC(=O)Cn1cc(-c2nc(C3CC3)no2)ccc1=O | > 50 µM (inactive)
COc1ccccc1C(=O)N1CCC(S(=O)(=O)c2ccc(-c3ccco3)cc2)CC1 | 42.9 µM
CCS(=O)(=O)N1CCc2cc(C(=O)Nc3ccc4c(c3)OCCO4)ccc21 | 0.364 µM

Next, values leading:

IC50 | SMILES
29.1 µM | O=C(Cc1cc(-c2ccccc2)on1)NCc1c(F)cccc1F
26.2 µM | COc1ccc(NC(=O)c2nnn(-c3cccc(C)c3)c2C)cc1
> 50 µM (inactive) | O=C(O)C1CCN(Cc2c(-c3ccco3)nc3ccc(Cl)cn23)CC1
20.2 µM | CCC(C)c1ccc(O[C@@H]2O[C@@H]3COC(c4ccccc4)O[C@H]3[C@H](O)[C@H]2NC(C)=O)cc1 (some centres not stated)
16.5 µM | Cn1cc(NC(=O)Nc2cccc3ccccc23)c2ccccc21
16.9 µM | CC(C)c1cc(NCc2ccccc2)n2nc(-c3cccnc3)nc2n1
1.83 µM | COc1ccc(OC)c(-c2cc(C(=O)Nc3c(C)nn(Cc4ccccc4)c3C)no2)c1
17.2 µM | Cc1ccc(NC(=O)Cn2cc(S(=O)(=O)N3CCCC3)ccc2=O)cc1
5.75 µM | CSc1ccccc1NC(=O)c1ccc(-n2cccn2)nn1
24.4 µM | COc1ccc(C)cc1NC(=O)C1CC(=O)Nc2nc3ccccc3n21 (configuration not stated)
27.6 µM | C=C[C@]1(C)C=C2C(=O)[C@]3(O)OC(=O)[C@@]4(CCCC(C)(C)[C@H]34)[C@@]2(O)CC1
15.1 µM | Fc1ccc(Cc2nc(-c3ccc4nncn4c3)no2)cc1
13 µM | Cc1ccc(Cn2c(=O)n(CCC(=O)NCCc3ccccc3)c(=O)c3ccccc32)cc1
15.5 µM | O=C(CCCCn1c(=O)c2ccccc2n(Cc2ccccc2F)c1=O)NCCc1ccccc1
22.4 µM | O=C(COc1ccc2ccccc2c1)Nc1cccc2ccccc12

— PubChem BioAssay AID1645866 (Buhrlage Lab, Dana-Farber Cancer Institute and Novartis …, 2021)
